Where two headings read alike, the source gives them in different places.
Assays:
[1] = Hydrolysis in Simulated Gastric Fluid (SGF) at 37° C., LC/MS; details: for Hydrolysis in SGF: hydrolyzed in 6.75 hours; for Oxycodone, Ketal A-D in hydrolysis mixture: oxycodone 2,4-pentanediol ketal isomers + unreacted oxycodone, 2 mg/nil, SGF 37° C.
[2] = assay type: physicochemical; details: for time to almost complete hydrolysis: 0.1N HCl 37° C., FIG. 10; for % Oxycodone, % IVA-IVD in hydrolysis mixture: total 1 mg/ml; for % Oxycodone, % IVA-IVD in hydrolysis mixture / % IVC in hydrolysis mixture / % Oxycodone, % IVD in hydrolysis mixture: 0.1 N HCl 37° C.; for relative rate of hydrolysis: comparison of stereoisomers; for % IVC in hydrolysis mixture: isomer IVC tested separately; for % IVC in hydrolysis mixture / % Oxycodone, % IVD in hydrolysis mixture: 1 mg/ml, normalized; for % Oxycodone, % IVD in hydrolysis mixture: isomer IVD tested separately
[3] = unreacted oxycodone + four isomers of Formula IV, 1 mg/ml, 5% acetic acid 100° C.
[4] = Ketal hydrolysis at varying pH, buffers at 37° C.; details: 1 mg/ml; for hydrolysis of the ketal: Table 13b, 37° C.

COc1ccc2c3c1OC1C4(CCC5(O)[C@@H](C2)N(C)CC[C@]315)OCC(C)O4 (some centres unmarked)
Hydrolysis in SGF [1]: Trace hydrolysis in 6.75 hours

COc1ccc2c3c1OC1C4(CCC5[C@@H](C2)N(C)CC[C@@]351)OCCO4 (some centres unmarked)
Hydrolysis in SGF [1]: ~2% hydrolyzed in 6.75 hours

COc1ccc2c3c1OC1C4(CCC5(O)C(C2)N(C)CCC315)OC(C)CC(C)O4 (stereo not drawn) [IVB, oxycodone 2S,4R-pentanediol ketal]
Oxycodone, Ketal A-D in hydrolysis mixture ([1]; 0 h): 10.3
Oxycodone, Ketal A-D in hydrolysis mixture ([1]; 0.58 h): 9.8
Oxycodone, Ketal A-D in hydrolysis mixture ([1]; 1.25 h): 10.4
Oxycodone, Ketal A-D in hydrolysis mixture ([1]; 2 h): 9.7
Oxycodone, Ketal A-D in hydrolysis mixture ([1]; 3 h): 10.2
Oxycodone, Ketal A-D in hydrolysis mixture ([1]; 4 h): 9.1

COc1ccc2c3c1O[C@H]1C4(CCC5(O)[C@@H](C2)N(C)CC[C@]315)O[C@@H](C)C[C@H](C)O4 (stereo partly drawn) [IVC, oxycodone 2S,4S-pentanediol ketal]
time to almost complete hydrolysis [2]: ≤ 8 h
% Oxycodone, % IVA-IVD in hydrolysis mixture ([2]; 0 h): 35.8%
% Oxycodone, % IVA-IVD in hydrolysis mixture ([2]; 0.583 h): 29.2%
% Oxycodone, % IVA-IVD in hydrolysis mixture ([2]; 1.167 h): 26%
% Oxycodone, % IVA-IVD in hydrolysis mixture ([2]; 1.75 h): 20.6%
% Oxycodone, % IVA-IVD in hydrolysis mixture ([2]; 2.33 h): 17.7%
% Oxycodone, % IVA-IVD in hydrolysis mixture ([2]; 2.92 h): 15%
% Oxycodone, % IVA-IVD in hydrolysis mixture ([2]; 4 h): 10.3%
% Oxycodone, % IVA-IVD in hydrolysis mixture ([2]; 6.5 h): 4%
% Oxycodone, % IVA-IVD in hydrolysis mixture ([2]; 9.75 h): 1.5%
% Oxycodone, % IVA-IVD in hydrolysis mixture ([2]; 13.75 h): 0%
% Oxycodone, % IVA-IVD in hydrolysis mixture ([2]; 25 h): 0%
relative rate of hydrolysis [2]: hydrolyzes relatively slowly
% IVC in hydrolysis mixture ([2]; 0 h): 98.7%
% IVC in hydrolysis mixture ([2]; 0.75 h): 71.5%
% IVC in hydrolysis mixture ([2]; 1.5 h): 54%
% IVC in hydrolysis mixture ([2]; 3.33 h): 18.8%
% IVC in hydrolysis mixture ([2]; 6 h): 4.7%
% IVC in hydrolysis mixture ([2]; 8 h): 2.1%
% Oxycodone, % IVA-IVD in hydrolysis mixture ([3]; 0 h): 36.2%
% Oxycodone, % IVA-IVD in hydrolysis mixture ([3]; 0.5 h): 12.8%
% Oxycodone, % IVA-IVD in hydrolysis mixture ([3]; 1 h): 5.9%
% Oxycodone, % IVA-IVD in hydrolysis mixture ([3]; 2 h): 0.9%
% Oxycodone, % IVA-IVD in hydrolysis mixture ([3]; 4.35 h): 0%
% Oxycodone, % IVA-IVD in hydrolysis mixture ([3]; 10 h): 0%

COc1ccc2c3c1O[C@H]1C4(CCC5(O)[C@@H](C2)N(C)CC[C@]315)O[C@H](C)C[C@@H](C)O4 (stereo partly drawn) [IVD, oxycodone 2R,4R-pentanediol ketal]
time to almost complete hydrolysis [2]: ≤ 2 h
% Oxycodone, % IVA-IVD in hydrolysis mixture ([2]; 0 h): 17.3%
% Oxycodone, % IVA-IVD in hydrolysis mixture ([2]; 0.583 h): 8.6%
% Oxycodone, % IVA-IVD in hydrolysis mixture ([2]; 1.167 h): 4.8%
% Oxycodone, % IVA-IVD in hydrolysis mixture ([2]; 1.75 h): 2.6%
% Oxycodone, % IVA-IVD in hydrolysis mixture ([2]; 2.33 h): 1.5%
% Oxycodone, % IVA-IVD in hydrolysis mixture ([2]; 2.92 h): 0.7%
% Oxycodone, % IVA-IVD in hydrolysis mixture ([2]; 4 h): 0%
% Oxycodone, % IVA-IVD in hydrolysis mixture ([2]; 6.5 h): 0%
% Oxycodone, % IVA-IVD in hydrolysis mixture ([2]; 9.75 h): 0%
% Oxycodone, % IVA-IVD in hydrolysis mixture ([2]; 13.75 h): 0%
% Oxycodone, % IVA-IVD in hydrolysis mixture ([2]; 25 h): 0%
relative rate of hydrolysis [2]: hydrolyzes relatively quickly
% Oxycodone, % IVD in hydrolysis mixture ([2]; 0 h): 99.8%
% Oxycodone, % IVD in hydrolysis mixture ([2]; 0.17 h): 70%
% Oxycodone, % IVD in hydrolysis mixture ([2]; 0.33 h): 44.8%
% Oxycodone, % IVD in hydrolysis mixture ([2]; 1 h): 10.8%
% Oxycodone, % IVD in hydrolysis mixture ([2]; 2 h): 2%
hydrolysis of the ketal ([4]; pH 1, 0 h): 0
hydrolysis of the ketal ([4]; pH 1, 0.33 h): 55.2
hydrolysis of the ketal ([4]; pH 1, 1 h): 89.2
hydrolysis of the ketal ([4]; pH 1, 2 h): 98
hydrolysis of the ketal ([4]; pH 1, 4 h): 100
hydrolysis of the ketal ([4]; pH 1.5, 0 h): 0
hydrolysis of the ketal ([4]; pH 1.5, 0.33 h): 14.9
hydrolysis of the ketal ([4]; pH 1.5, 1 h): 34.4
hydrolysis of the ketal ([4]; pH 1.5, 2 h): 51.9
hydrolysis of the ketal ([4]; pH 1.5, 4 h): 80.4
hydrolysis of the ketal ([4]; pH 2, 0 h): 0
hydrolysis of the ketal ([4]; pH 2, 0.33 h): 4.6
hydrolysis of the ketal ([4]; pH 2, 1 h): 13.3
hydrolysis of the ketal ([4]; pH 2, 2 h): 24.2
hydrolysis of the ketal ([4]; pH 2, 4 h): 40.9
hydrolysis of the ketal ([4]; pH 2.5, 0 h): 0
hydrolysis of the ketal ([4]; pH 2.5, 0.33 h): 0
hydrolysis of the ketal ([4]; pH 2.5, 1 h): 0
hydrolysis of the ketal ([4]; pH 2.5, 2 h): 8.4
hydrolysis of the ketal ([4]; pH 2.5, 4 h): 14.7
hydrolysis of the ketal ([4]; pH 3, 0 h): 0
hydrolysis of the ketal ([4]; pH 3, 0.33 h): 0
hydrolysis of the ketal ([4]; pH 3, 1 h): 0
hydrolysis of the ketal ([4]; pH 3, 2 h): 3.4
hydrolysis of the ketal ([4]; pH 3, 4 h): 6.4
pH at which hydrolysis of the ketal is fastest ([4]; pH buffers 37° C.): fastest at pH 1
% Oxycodone, % IVA-IVD in hydrolysis mixture ([3]; 0 h): 17.6%
% Oxycodone, % IVA-IVD in hydrolysis mixture ([3]; 0.5 h): 1.5%
% Oxycodone, % IVA-IVD in hydrolysis mixture ([3]; 1 h): 0%
% Oxycodone, % IVA-IVD in hydrolysis mixture ([3]; 2 h): 0%
% Oxycodone, % IVA-IVD in hydrolysis mixture ([3]; 4.35 h): 0%
% Oxycodone, % IVA-IVD in hydrolysis mixture ([3]; 10 h): 0%
